# ChEMBL document CHEMBL3596103, “Synthesis of novel amide functionalized 2H-chromene derivatives by Ritter amidation of primary alcohol using HBF4·OEt2 as a mild and versatile reagent and evaluation of their antimicrobial and anti-biofilm activities” (Bioorg Med Chem Lett, 2015)
# Active and inactive are the calls of the source. The calls are words filed in the database; no cut-off is given here.
# Assays:
# Staphylococcus aureus [1] = test: Antimicrobial activity against Staphylococcus aureus MLS16 MTCC 2940 incubated for 24 hrs at 37 degC by well diffusion method; assay type: functional; conditions: MLS16 MTCC 2940, 24 h
# Micrococcus luteus [2] = test: Antimicrobial activity against Micrococcus luteus MTCC 2470 incubated for 24 hrs at 37 degC by well diffusion method; assay type: functional; conditions: MTCC 2470, 24 h
# Bacillus subtilis [3] = test: Antimicrobial activity against Bacillus subtilis MTCC 121 incubated for 24 hrs at 37 degC by well diffusion method; assay type: functional; conditions: MTCC 121, 24 h
# Escherichia coli [4] = test: Antimicrobial activity against Escherichia coli MTCC 739 incubated for 24 hrs at 37 degC by well diffusion method; assay type: functional; conditions: MTCC 739, 24 h
# Raoultella planticola [5] = test: Antimicrobial activity against Klebsiella planticola MTCC 530 incubated for 24 hrs at 37 degC by well diffusion method; assay type: functional; conditions: MTCC 530, 24 h
# Pseudomonas aeruginosa = test: Antimicrobial activity against Pseudomonas aeruginosa MTCC 2453 incubated for 24 hrs at 37 degC by well diffusion method; assay type: functional; conditions: MTCC 2453, 24 h
# Candida albicans = test: Antimicrobial activity against Candida albicans MTCC 3017 incubated for 24 hrs at 30 degC by well diffusion method; assay type: functional; conditions: MTCC 3017, 24 h
# Micrococcus luteus [6] = test: Bactericidal activity against Micrococcus luteus MTCC 2470 incubated for 24 hrs at 37 degC; assay type: functional; conditions: MTCC 2470, 24 h
# Staphylococcus aureus [7] = test: Bactericidal activity against Staphylococcus aureus MLS16 MTCC 2940 incubated for 24 hrs at 37 degC; assay type: functional; conditions: MLS16 MTCC 2940, 24 h
# Bacillus subtilis [8] = test: Bactericidal activity against Bacillus subtilis MTCC 121 incubated for 24 hrs at 37 degC; assay type: functional; conditions: MTCC 121, 24 h
# Escherichia coli [9] = test: Bactericidal activity against Escherichia coli MTCC 739 incubated for 24 hrs at 37 degC; assay type: functional; conditions: MTCC 739, 24 h
# Raoultella planticola [10] = test: Bactericidal activity against Klebsiella planticola MTCC 530 incubated for 24 hrs at 37 degC; assay type: functional; conditions: MTCC 530, 24 h
# Micrococcus luteus [11] = test: Inhibition of bio-film formation of Micrococcus luteus MTCC 2470 incubated for 24 hrs at 37 degC under static conditions by crystal violet staining method; assay type: functional, organism-based; conditions: MTCC 2470, 24 h
# Staphylococcus aureus [12] = test: Inhibition of bio-film formation of Staphylococcus aureus MLS16 MTCC 2940 incubated for 24 hrs at 37 degC under static conditions by crystal violet staining method; assay type: functional, organism-based; conditions: MLS16 MTCC 2940, 24 h
# Bacillus subtilis [13] = test: Inhibition of bio-film formation of Bacillus subtilis MTCC 121 incubated for 24 hrs at 37 degC under static conditions by crystal violet staining method; assay type: functional, organism-based; conditions: MTCC 121, 24 h
# Escherichia coli [14] = test: Inhibition of bio-film formation of Escherichia coli MTCC 739 incubated for 24 hrs at 37 degC under static conditions by crystal violet staining method; assay type: functional, organism-based; conditions: MTCC 739, 24 h
# Raoultella planticola [15] = test: Inhibition of bio-film formation of Klebsiella planticola MTCC 530 incubated for 24 hrs at 37 degC under static conditions by crystal violet staining method; assay type: functional, organism-based; conditions: MTCC 530, 24 h
# Staphylococcus aureus [16] = test: Induction of intracellular ROS accumulation in Staphylococcus aureus MLS16 MTCC 2940 sessile biofilm cells at 0.5 to 2 um incubated for 24 hrs at 35 degC by DCFH-DA dye based fluorescence assay; assay type: functional, organism-based
SMILES,MIC (Staphylococcus aureus [1]),MIC (Micrococcus luteus [2]),MIC (Bacillus subtilis [3]),MIC (Escherichia coli [4]),MIC (Pseudomonas aeruginosa),MIC (Candida albicans),IC50 (Micrococcus luteus [11]),IC50 (Staphylococcus aureus [12]),IC50 (Bacillus subtilis [13]),IC50 (Escherichia coli [14]),MIC (Raoultella planticola [5]),MBC (Micrococcus luteus [6]),MBC (Staphylococcus aureus [7]),MBC (Bacillus subtilis [8]),MBC (Escherichia coli [9]),MBC (Raoultella planticola [10]),IC50 (Raoultella planticola [15]),Activity (Staphylococcus aureus [16])
O=C(CCBr)NCC1=Cc2ccccc2OC1(O)C(F)(F)F (stereo not drawn),> 125 µg/mL,> 125 µg/mL,> 125 µg/mL,> 125 µg/mL,> 125 µg/mL,> 125 µg/mL,–,–,–,–,> 125 µg/mL,–,–,–,–,–,–,–
O=C(CBr)NCC1=Cc2ccccc2OC1(O)C(F)(F)F (stereo not drawn),9.5 µM,19.1 µM,9.5 µM,19.1 µM,> 125 µg/mL,> 125 µg/mL,8.3 µM,3.6 µM,5.1 µM,10.5 µM,19.1 µM,38.3 µM,19.1 µM,19.1 µM,38.3 µM,19.1 µM,12.7 µM,–
O=C(Cc1cccc(Cl)c1)NCC1=Cc2cc(Br)ccc2OC1(O)C(F)(F)F (stereo not drawn),15.6 µM,31.2 µM,31.2 µM,15.6 µM,> 125 µg/mL,> 125 µg/mL,18.4 µM,9.2 µM,22.2 µM,8.2 µM,31.2 µM,74.2 µM,37.1 µM,74.2 µM,37.1 µM,74.2 µM,24.6 µM,–
O=C(Cc1ccccc1)NCC1=Cc2ccccc2OC1(O)C(F)(F)F (stereo not drawn),> 125 µg/mL,> 125 µg/mL,> 125 µg/mL,> 125 µg/mL,> 125 µg/mL,> 125 µg/mL,–,–,–,–,> 125 µg/mL,–,–,–,–,–,–,–
CC[C@H]1OC(=O)[C@H](C)[C@@H](O[C@H]2C[C@@](C)(OC)[C@@H](O)[C@H](C)O2)[C@H](C)[C@@H](O[C@@H]2O[C@H](C)C[C@H](N(C)C)[C@H]2O)[C@](C)(O)C[C@@H](C)C(=O)[C@H](C)[C@@H](O)[C@]1(C)O [ERYTHROMYCIN],–,–,–,–,–,–,0.31 µM,0.25 µM,0.42 µM,0.43 µM,–,–,–,–,–,–,0.35 µM,Active
O=C(O)c1cn(C2CC2)c2cc(N3CCNCC3)c(F)cc2c1=O [CIPROFLOXACIN],2.7 µM,2.7 µM,2.7 µM,2.7 µM,2.7 µM,> 125 µg/mL,–,–,–,–,2.7 µM,5.7 µM,2.7 µM,5.7 µM,5.7 µM,2.7 µM,–,–
CC(=O)NCC1=Cc2cc(Br)ccc2OC1(O)C(F)(F)F (stereo not drawn),> 125 µg/mL,> 125 µg/mL,> 125 µg/mL,> 125 µg/mL,> 125 µg/mL,> 125 µg/mL,–,–,–,–,> 125 µg/mL,–,–,–,–,–,–,–
O=C(Cc1ccc(Br)cc1)NCC1=Cc2cc(Br)ccc2OC1(O)C(F)(F)F (stereo not drawn),14.3 µM,28.6 µM,14.3 µM,14.3 µM,> 125 µg/mL,> 125 µg/mL,7.7 µM,6.2 µM,8.8 µM,5.8 µM,14.3 µM,28.6 µM,14.3 µM,28.6 µM,14.3 µM,57.3 µM,14.8 µM,–
CC(=O)NCC1=Cc2ccccc2OC1(O)C(F)(F)F (stereo not drawn),> 125 µg/mL,> 125 µg/mL,> 125 µg/mL,> 125 µg/mL,> 125 µg/mL,> 125 µg/mL,–,–,–,–,> 125 µg/mL,–,–,–,–,–,–,–

# Further lines, with some results ahead:
MIC (Staphylococcus aureus [1]),MIC (Micrococcus luteus [2]),MIC (Bacillus subtilis [3]),MIC (Escherichia coli [4]),MIC (Pseudomonas aeruginosa),MIC (Candida albicans),IC50 (Micrococcus luteus [11]),IC50 (Staphylococcus aureus [12]),IC50 (Bacillus subtilis [13]),IC50 (Escherichia coli [14]),SMILES,MIC (Raoultella planticola [5]),MBC (Micrococcus luteus [6]),MBC (Staphylococcus aureus [7]),MBC (Bacillus subtilis [8]),MBC (Escherichia coli [9]),MBC (Raoultella planticola [10]),IC50 (Raoultella planticola [15]),Activity (Staphylococcus aureus [16])
> 125 µg/mL,> 125 µg/mL,> 125 µg/mL,> 125 µg/mL,> 125 µg/mL,> 125 µg/mL,–,–,–,–,O=C(CCCCBr)NCC1=Cc2cc(Br)ccc2OC1(O)C(F)(F)F (stereo not drawn),> 125 µg/mL,–,–,–,–,–,–,–
> 125 µg/mL,–,–,–,–,> 125 µg/mL,–,–,–,–,O=C(CCBr)NCC1=Cc2cccc(F)c2OC1(O)C(F)(F)F (stereo not drawn),–,–,–,–,–,–,–,–
> 125 µg/mL,> 125 µg/mL,> 125 µg/mL,> 125 µg/mL,> 125 µg/mL,18.7 µM,–,–,–,–,Clc1ccc(COC(Cn2ccnc2)c2ccc(Cl)cc2Cl)c(Cl)c1 (stereo not drawn) [MICONAZOLE],> 125 µg/mL,–,–,–,–,–,–,–
> 125 µg/mL,> 125 µg/mL,> 125 µg/mL,> 125 µg/mL,> 125 µg/mL,> 125 µg/mL,–,–,–,–,O=C(CCCCBr)NCC1=Cc2ccccc2OC1(O)C(F)(F)F (stereo not drawn),> 125 µg/mL,–,–,–,–,–,–,–
4 µM,8.3 µM,4 µM,8.3 µM,> 125 µg/mL,> 125 µg/mL,1.7 µM,1.2 µM,1.4 µM,1.4 µM,O=C(CBr)NCC1=Cc2cc(Br)ccc2OC1(O)C(F)(F)F (stereo not drawn),4 µM,8.3 µM,4 µM,4 µM,16.6 µM,8.3 µM,1.7 µM,Active
33.6 µM,> 125 µg/mL,> 125 µg/mL,> 125 µg/mL,> 125 µg/mL,> 125 µg/mL,19.1 µM,21.9 µM,–,–,O=C(Cc1ccccc1)NCC1=Cc2cc(Br)ccc2OC1(O)C(F)(F)F (stereo not drawn),33.6 µM,33.6 µM,67.2 µM,> 230 µM,> 230 µM,> 230 µM,–,–
> 125 µg/mL,> 125 µg/mL,33.6 µM,> 125 µg/mL,> 125 µg/mL,> 125 µg/mL,17.4 µM,16.8 µM,–,–,O=C(Cc1ccc(Br)cc1)NCC1=Cc2ccccc2OC1(O)C(F)(F)F (stereo not drawn),33.6 µM,33.6 µM,67.2 µM,> 230 µM,> 230 µM,> 230 µM,–,–
> 125 µg/mL,> 125 µg/mL,> 125 µg/mL,> 125 µg/mL,> 125 µg/mL,> 125 µg/mL,–,–,–,–,O=C(CCBr)NCC1=Cc2cc(Br)ccc2OC1(O)C(F)(F)F (stereo not drawn),> 125 µg/mL,–,–,–,–,–,–,–
37.1 µM,> 125 µg/mL,74.2 µM,> 125 µg/mL,> 125 µg/mL,> 125 µg/mL,17.1 µM,19.7 µM,43.8 µM,–,O=C(Cc1cccc(Cl)c1)NCC1=Cc2ccccc2OC1(O)C(F)(F)F (stereo not drawn),37.1 µM,74.2 µM,37.1 µM,74.2 µM,> 230 µM,> 230 µM,–,–
